Assay results: paper PMC7091493 (Journal of medicinal chemistry, 2019)

Target: Mtb20S (Mycobacterium tuberculosis, UniProt P9WHT9)
Assay type: biochemical

Chain of Mtb20S (P9WHT9 58-291): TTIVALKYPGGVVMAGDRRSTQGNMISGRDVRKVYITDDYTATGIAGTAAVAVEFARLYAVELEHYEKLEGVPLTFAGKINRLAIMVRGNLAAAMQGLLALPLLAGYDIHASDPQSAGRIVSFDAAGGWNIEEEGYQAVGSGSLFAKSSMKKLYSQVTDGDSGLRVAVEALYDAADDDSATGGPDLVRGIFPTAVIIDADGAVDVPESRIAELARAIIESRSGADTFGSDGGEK

How did the “improved potency against Mtb20S” value turn out when `Cc1cc(C(=O)N[C@@H](CC(=O)N2CCC[C@@H]2c2ccccc2)C(=O)N[C@@H](C)c2ncc(-c3ccccc3F)[nH]2)no1` [B6] was run?
Its value is 10 fold.
